Measurements taken from article PMC11357992, “Non-invasive mapping of systemic neutrophil dynamics upon cardiovascular injury” (Nature Cardiovascular Research, 2023).
Where “and” joins values, the source holds several entries; their conditions need not be identical. Equal values may be shown once. Where no end group is shown, it is not given here. Side-chain parts run from the residue outwards. rhodamine‑labelled PEGylated perfluoro‑15‑crown‑5 ether nanoemulsion = not defined here; carboxyfluorescein = N-terminal fluorescence label (CF)

Experiments:
[1] = test system: human lymphocytes, monocytes or neutrophils; test: Uptake of hNPPFCs/ConPFCs by human blood immune cells, flow cytometry; format: cell-based; conditions: for uptake by lymphocytes, raw data (flow cytometry): human lymphocytes; for uptake by lymphocytes, raw data (flow cytometry) / uptake by monocytes, raw data (flow cytometry): single samples #1-#4; for uptake by monocytes, raw data (flow cytometry): human monocytes
Experimental: Blood was collected from the vena brachialis, and erythrocytes were lysed as described above. After 10 min of incubation, samples were centrifuged at 350g for 10 min at 20 °C. For isolation of a purified neutrophil fraction, density gradient centrifugation was performed. Five milliliters of Ficoll 1.077 (Sigma-Aldrich) was layered on 5 ml Ficoll 1.119 (Sigma-Aldrich), and 20 ml of whole blood diluted 1:2 with PBS was carefully layered on the Ficoll 1.077. Samples were centrifuged at 350g for 20 min with low acceleration and brake. The neutrophil layer was isolated by careful aspiration and washed with PBS. Isolated cells were resuspended in MACS buffer.
Human immune cells were discriminated by staining for CD45 (BioLegend, clone HI30), CD11b (BD Biosciences, clone ICRF44), CD14 (BioLegend, clone M5E2) and CD16 (BD Biosciences, clone 3G8) (lymphocytes, CD45^+CD11b^−CD16^−; classical monocytes, CD45^+CD11b^+CD14^++CD16^−; non-classical monocytes, CD45^+CD11b^+CD14^+CD16^++; neutrophils, CD45^+CD11b^+CD16^+). Murine immune cells were discriminated by staining for CD45 (BD Biosciences, clone 30-F11), CD11b (BioLegend, clone M1/70), Ly6G (BD Biosciences, clone 1A8), Ly6C (BioLegend, clone HK1.4) and F4/80 (BioLegend, clone BM8) (lymphocytes, CD45^+CD11b^−Ly6G^−; classical monocytes, CD45^+CD11b^+Ly6G^−Ly6C^hi; non-classical monocytes, CD45^+CD11b^+Ly6G^−Ly6C^lo; neutrophils, CD45^+CD11b^+Ly6G^+; eosinophils, CD45^+CD11b^+Ly6G^+SSC^hiFSC^lo). Both human and murine cells were stained for 20 min at 4 °C, followed by washing with 200 µl MACS buffer.
If not mentioned otherwise, neutrophil-specific peptide or Con (both at 1 µg ml^−1) were incubated for 20 min at 4 °C, while ^NPPFCs or ^ConPFCs were incubated at a concentration of 10 µl ml^−1 for the indicated period of time, followed by two washing steps with 200 µl MACS buffer.
A total of 1 × 10^6 cells were incubated with 10 µl of the emulsion over a period of 80 min at 37 °C. At distinct time points, 50 µl of the samples were transferred into 2 ml of ice-cold MACS buffer and analyzed for rhodamine fluorescence by flow cytometry.
Extended Data Fig. 8 Physicochemical properties and cellular uptake of ^hNPPFCs. a, Cellular uptake of ^hNPPFCs by human monocyte subsets and neutrophils: Human immune cells isolated from the blood of healthy volunteers were incubated with ^hNPPFCs. Subsequently, cells were stained with CD11b, CD14 and CD16 to differentiate between neutrophils (red), classical monocytes (gray) and non-classical monocytes (blue) and the cells were analyzed by flow cytometry. The cellular uptake of ^hNPPFCs was determined under unstimulated conditions (top) and after treatment with 1 µg/ml LPS (bottom). b, Physicochemical properties of the generated nanotracers: Characterization of size, size distribution and ζ potential of ^MalPFCs and targeting PFCs (^hNPPFCs, ^ConPFCs) by dynamic light scattering (DLS). The rhodamine fluorescence signal of the PCS was determined by IVIS imaging and the ^19F content by ^19F MRI. c-e, Cryo transmission electron microscopy of the generated nanotracers: c, Cryo transmission electron microscopy (cryo-TEM) of ^hNPPFCs and ^ConPFCs. Graphs: The diameter of the PFCs was determined manually from three images categorized into 25 nm groups. […] Data are derived from three images for ^hNPPFCs and ^ConPFCs each. d, Box plot (box and whiskers; min to max) of the diameter of ^ConPFCs/^hNPPFCs calculated from cryo-TEM images. e, Relative amount of liposomes (%) in individual cryo-TEM images. The number of PFCs and liposomes was manually determined (n = 4/5 images). Red arrows in the cryo-TEM images indicate liposomes. Data are mean values ± SD of n = 5-6 (a), n = 3-6 (b), n = 3 (c), n = 3 (d) and n = 6 (e) independent experiments; *** = p < 0.001, verified by one-way ANOVA (a). Source data

[2] = test system: murine neutrophils; test: Phagocytosis of FITC-labeled E. coli particles by murine neutrophils after mNPPFC injection; format: in vivo, mouse; conditions: in the presence of the targeting PFCs
Experimental: […] per kg BW ^mNPPFCs or saline were injected i.v., followed by 100 µl FITC-labeled Escherichia coli particles (Thermo Fisher) 2 h later. […] Thereafter, FITC labeling was determined by flow cytometry.
Extended Data Fig. 9 Impact of ^mNPPFCs on murine neutrophils. a, Differentially expressed genes (DEGs) identified by bulk RNA sequencing of murine blood neutrophils after intravenous injection of ^mNPPFCs, ^ConPFCs or NaCl (Ctrl) as control. Volcano plots of DEGs for murine neutrophils of animals treated with saline compared to ^mNPPFCs (left), or ^ConPFCs compared to ^mNPPFC (right). […] BF = Bonferroni corrected p-values of the false discovery rate. In total 25655 RNA transcripts were analyzed. b, Cell surface expression of CD11b, CD62L, CD63 on blood derived murine neutrophils after intravenous application of NaCl (Ctrl) or ^mNPPFCs. As a positive control, matrigel doped with 50 µg LPS was subcutaneously implanted into the neck of mice and after 24 h, neutrophils were isolated from the blood and analyzed by flow cytometry. c, Impact of ^mNPPFC incubation on neutrophil migration, phagocytosis and release of reactive oxygen species (ROS). […]

Substance | uptake by neutrophils, Ctrl - hNPPFCs, raw data ([1]; Ctrl donors, time 0, single samples #1-#8) | uptake by human monocytes and their subtypes, flow cytometry ([1]; also under LPS stimulation (1 µg/ml)) | uptake by lymphocytes, raw data (flow cytometry) ([1]; incubation 0 min) | uptake by lymphocytes, raw data (flow cytometry) ([1]; incubation 40 min) | uptake by lymphocytes, raw data (flow cytometry) ([1]; incubation 80 min) | uptake by monocytes, raw data (flow cytometry) ([1]; incubation 0 min) | uptake by monocytes, raw data (flow cytometry) ([1]; incubation 10 min) | uptake by monocytes, raw data (flow cytometry) ([1]; incubation 20 min) | uptake by monocytes, raw data (flow cytometry) ([1]; incubation 40 min) | uptake by monocytes, raw data (flow cytometry) ([1]; incubation 80 min) | uptake by neutrophils, raw data (flow cytometry) ([1]; human neutrophils, incubation 0 min, single samples #1-#9) | binding to human lymphocytes, flow cytometry ([1]; immune cells from human blood) | binding to human neutrophils, flow cytometry ([1]; immune cells from human blood) | human neutrophils labeled by hNPPFCs ([1]; of all human neutrophils in the authors' samples (CD177 not present on all)) | phagocytosis by murine neutrophils [2]
hNPPFCs: PEGylated rhodamine-labeled perfluorocarbon nanoemulsion coupled with human neutrophil-specific peptide hNP (carboxyfluorescein-DLVTSKLQVGGGC; also: C-terminal Cys coupled via maleimide-PEG2000-DSPE to rhodamine-labelled perfluorocarbon nanoemulsion) | 68.6 and 64 and 91.8 and 102 and 91.2 and 87.9 and 78.2 and 76.6 | only minor uptake | 14.8 and 22.7 and 17.1 and 13 | 125 and 107 and 139 and 206 | 149 and 177 and 157 and 227 | 41.4 and 45.1 and 42.3 and 29.9 | 285 and 252 and 274 and 459 | 318 and 557 and 425 and 621 | 616 and 798 and 629 and 741 | 938 and 1088 and 771 and 1126 | 76.6 and 91.8 and 102 and 91.2 and 87.9 and 78.2 | no binding to lymphocytes | avidly bound to neutrophils | 50–60% | –
mNPPFCs: PEGylated rhodamine-labeled perfluoro-15-crown-5 ether nanoemulsion (maleimide PFCs) coupled with murine neutrophil-specific peptide mNP (carboxyfluorescein-DFYKPMPNLRITGGGC([maleimide‑PEG2000‑DSPE-rhodamine‑labelled PEGylated perfluoro‑15‑crown‑5 ether nanoemulsion]); reading uncertain; also: printed as DFYKPMPNLRIT-GGG-C) | – | – | – | – | – | – | – | – | – | – | – | – | – | – | unaltered
